Experimental data from patent US20060194776A1, “Compositions and methods for treating tissue ischemia” (priority 2003, published 2006).
Where two headings read alike, the source gives them in different places.

Legend:
[1] = tested on: capillaries of left ventricular myocardium; details: two weeks after AMI
Description: (§1) The explanted hearts of sacrificed mice were sliced in a bread-loaf fashion into transverse sections from apex to base (base-, mid-, and apex-portions) and fixed with 4% paraformaldehyde. Tissues were embedded in paraffin and sectioned for elastic tissue/trichrome staining and immunohistochemistry using the murine-specific EC marker Bandeiraea simplicifolia lectin I (Isolectin B4) (Vector laboratories).
(§2) Capillary density was assessed by histological examination of five randomly selected fields of tissue sections from segments of the left ventricular myocardium served by the occluded LAD. Capillaries were recognized as tubular structures positive for isolectin B4. Elastic tissue/trichrome-stained tissues from the mice four weeks after MI were used to measure the average ratio of the external circumference of fibrosis area to LV area.

left ventricle fibrosis = details: two weeks after AMI
Description: as §1, §2

MMP-2 = details: one week after MI; RT-PCR
Description: To clarify the mechanism of BM-EPC kinetics induced by AMD3100, RT-PCR was performed for MMP-9 mRNA expression on BM-mononuclear cells one week after MI was performed. RNA was extracted from mononuclear cells isolated from bone marrow using TRIzol reagent (Invitrogen) according to the manufacture's instruction. Reverse transcriptase-polymerase chain reaction (RT-PCR) of the MMP-9 and GAPDH genes was performed using 1 μg of total RNA. PCR was performed for 25 cycles for both MMP-9 and GAPDH; each cycle maintained 94° C. for 30 seconds and 64° C. for three minutes. Amplification was carried out in 20-μl reaction mixtures containing 0.4 U Taq polymerase.

[2] = tested on: X-gal positive cells (bone-marrow derived endothelial cells) in left ventricle; details: for number of X-gal positive cells: infarct and border area, Tie2-LacZ/BMT mice
Description: This Example describes the experimental design of the Tie2-LacZ/BMT mouse model. […] FVB/N background mice (n=30) were irradiated to kill their endogenous bone marrow. They were then given a bone marrow transplant (BMT) of 2×10^6 mononuclear cells (MNCs) derived from age-matched (4 weeks old) Tie2-LacZ mice (FVB/N-TgN[TIE2LacZ]182Sato, Jackson Lab). AMIs were induced in the mice (now called Tie2-LacZ/BMT mice) by LAD ligation four weeks after BMT, by which time the bone marrow of the recipient mice had been reconstituted. Right after AMI, the mice were each given a single subcutaneous injection of AMD-3100 (125 μg) or saline (control). Bone marrow cells were obtained using procedures described above. Bone marrow mononuclear cells were also isolated by density centrifugation. Tissue analysis was done at one or two weeks.
Tie-2/LZ/BMT mice were sacrificed at one and two weeks after MI. The explanted hearts were sliced in a bread-loaf fashion into transverse sections from apex to base (base-, mid-, and apex-portions). Mid-portions of the hearts were fixed in 4% paraformaldehyde for three hours at room temperature and incubated in X-gal solution overnight at 37° C. The target tissue samples were then placed in PBS [need to spell this out] and examined under a dissecting microscope for macroscopic identification of lacZ-expressing cells. Histological sections of the mid-portion heart tissue were counterstained with hematoxylin and eosin and assessed by light microscopy. The number of X-gal positive cells in six randomly chosen fields at 40× magnification were counted in a blinded manner.
Left ventricle sections of AMD-3100-treated and control Tie2-LacZ/BMT mice were analyzed one and two weeks after AMI. […] The quantitative analysis of X-gal positive cells was evaluated by histological examination of six randomly selected fields in the infarct and border area.

mice after AMI = tested on: mice after AMI
Description: (§3) Eight-week old male FVB mice were anesthetized with sodium pentobarbital (50 mg/kg IP). The animals were intubated orally with a 22G IV catheter and artificially ventilated with a respirator (Harvard Apparatus). A left intercostal thoracotomy was performed and the ribs were retracted with 5-0 polypropylene sutures. After the pericardium was opened, the left anterior descending (LAD) branch of the left coronary artery was ligated proximal to the bifurcation between the LAD and the diagonal branch using 8-0 polypropylene sutures and visualized with a dissecting microscope. Positive end-expiratory pressure was applied to fully inflate the lungs, and the chest was closed with 7-0 polypropylene sutures. After the closure of chest wall, mice randomly received either a single subcutaneous injection of 125 μg AMD3100 (AMD group) or saline (control group). After physiological assessment at one, two and four weeks after MI, a subgroup of the mice were euthanized by intravenous administration of a lethal dose of pentobarbital.
All values were expressed as mean±the standard error of the mean. Statistical significance was evaluated using Wilcoxon Rank Sum Test for comparisons between mice receiving AMD3100 and those receiving saline. Overall survival of all the mice was assessed by Kaplan-Meier analysis. Survival in individual experimental groups was also analyzed by Fisher's extract probability test. A p value of less than 0.05 was considered statistically significant.

[3] = tested on: endothelial progenitor cells (EPCs) in peripheral blood
Description: (§4) Peripheral blood mononuclear cells (PBMNCS) were isolated from 500 μl of peripheral blood obtained from each mouse. PBMNCs were cultured in EBM media (Clonetics, San Diego, Calif.) with 5% fetal bovine serum (FBS), antibiotics, and growth factors (EPC medium) on four-well glass slides coated with rat plasma vitronectin (Sigma) in 0.5% gelatin solution. Four days after culture, EPCs, recognized as attaching spindle-shaped cells, were assayed by co-staining with acetylated LDL (acLDL)-DiI (Biomedical Technologies, Stoughton, Mass.) and Bandeiraea simplicifolia (BS-1) lectin I (Vector Laboratories, Burlingame, Calif.), indicators of endothelial lineage, and conjugated with FITC (Sigma). EPCs were identified as double-positive cells under fluorescent microscopy. The number of double-positive cells per sample, measured in fifteen fields under 20× magnification, was counted in a blinded manner.

[4] = tested on: BS lectin 1 and β-gal double-positive cells; details: one week after AMI; 400×
Description: Apex-sections from the Tie-2/LZ/BMT mice were embedded in OCT compound (Miles Scientific) and snap-frozen in liquid nitrogen for fluorescence microscopy immediately after sacrifice. Immunohistochemical staining was performed using antibodies against the rabbit anti-B-galactosidase IgG (CORTEX Biochem) and the murine-specific EC marker fluorescein griffonia simplicifolia lectin I (Vector Laboratories).
Sections of ischemic (FIGS. 12A-12F) and intact (FIGS. 13A-13F) myocardium were stained for both BS lectin 1 (green fluorescence) and β-galactosidase (red fluorescence).

[5] = tested on: FVB mice after MI (LAD ligation)
Description: as §3
Transthoracic echocardiography (SONOS 5500, Hewlett Packard) was performed just before MI and one, two and four weeks after MI. Left ventricular diastolic (LVDd) and systolic (LVDs) dimensions and fractional shortening were measured at the mid-papillary muscle level. Hemodynamic measurements were obtained at two and four weeks after MI using a 1.0-French high-fidelity pressure catheter (Millar Instruments, Houston, Tex.) via the left carotid artery. LV systolic pressure and maximal positive (+dP/dt) and negative (−dP/dt) pressure development were recorded after stabilization of LV function and heart rate.

EPCs in peripheral blood = tested on: EPCs in peripheral blood
Description: as §4
To evaluate the effect of AMD-3100 on circulating EPC kinetics, EPC counts (cells/mm^2) were taken from peripheral blood one and two weeks after AMI. At each time point after the induction of MI, mononuclear cells were isolated from peripheral blood and total BM cells that had been obtained by flushing the tibias and femurs. EPCs were counted by culturing as described in Example 1, and stained with both acLDL-DiI and BS-1 lectin. Double positive cells were counted in 15 fields under objective 20× magnification per sample in a blinded manner.

[6] = tested on: EPCs in BM mononuclear cells; details: one week after MI
Description: (§5) Fluorescence-activated cell sorting (FACS) was used to identify EPCs from mononuclear cells isolated both from peripheral blood and bone marrow. The viable mononuclear cell population was analyzed for the expression of Sca-1-FITC (Pharmingen) and Flk-1 (Santa Cruz) conjugated with the corresponding phycoerythrin-labeled secondary antibody (Sigma). Isotype-identical antibodies served as negative controls. Immunofluorescence-labeled cells were fixed with 2% paraformaldehyde and analyzed by quantitative flow cytometry using a FACStar flow cytometer (Becton Dickinson) and Cell Quest Software that counted 10,000 events per sample.

[7] = tested on: EPCs isolated from peripheral blood; details: one week after MI
Description: as §5

[8] = 1 week after MI, 125 μg s.c. after MI
[9] = 2 weeks after MI, 125 μg s.c. after MI
[10] = 2 weeks after MI, 125 μg s.c. after MI, listed as AMD
[11] = 4 weeks after MI, 125 μg s.c. after MI
[12] = 4 weeks after MI, 125 μg s.c. after MI, listed as AMD

c1cc(CN2CCCNCCNCCCNCC2)ccc1CN1CCCNCCNCCCNCC1 [AMD-3100, 1,1′-[1,4-phenylene-bis(methylene)]-bis-1,4,8,11-tetraazacyclotetradecane]
capillary density in border zone [1]: 4005±189 /mm^2
fibrosis area of left ventricle (left ventricle fibrosis): 25±6%
expression of MMP-2 in BM mononuclear cells (MMP-2): not
number of X-gal positive cells ([2]; 1 week after AMI): 3776±113 /mm2
number of X-gal positive cells ([2]; 2 weeks after AMI): 1906±138 μmm2
X-gal staining of the left ventricle (macroscopic) vs controls ([2]; one and two weeks after AMI): marked increase
mice still living (mice after AMI; 14 weeks after AMI (so in the source), FIG. 4A): 64%
mice died (mice after AMI; another group of mice, four weeks after MI, FIG. 4B): 42%
survival rate vs mice receiving saline (mice after AMI; four weeks after MI, FIG. 4B): higher
maximal MNCs and EPCs (number) ([3]; 1 hour after single s.c. injection of 125 μg, FVB/N mice, peripheral blood): 613±89 cells/mm^2
time until MNC/EPC numbers returned to baseline ([3]; after single s.c. injection of 125 μg): ≤ 24 h
time of maximal MNCs and EPCs after drug administration ([3]; single s.c. injection of 125 μg): 1 h
double-positive cells in a representative section [4]: eight
double-positive cells in another representative section [4]: eight
double-positive cells in tissue (merged fluorescence microscopy) [4]: marked increase
FS (fractional shortening) [5, 8]: 35 ± 2%
HR (heart rate) [5, 8]: 494 ± 24 bpm
LVDd [5, 8]: 3.5 ± 0.1 mm
LVDs [5, 8]: 2.2 ± 0.1 mm
FS (fractional shortening) [5, 9]: 34±1%
HR (heart rate) [5, 9]: 515 ± 16 bpm
LV +dP/dt [5, 9]: 3383±104 mm Hg/s
LV −dP/dt [5, 9]: 2213±113 mm Hg/s
LVDd [5, 9]: 3.8±0.1 mm
LVDs [5, 9]: 2.5±0.1 mm
LVEDP [5, 9]: 1.6±0.4 mmHg
LVSP [5, 9]: 71±2 mmHg
FS (fractional shortening) [5, 10]: 34±1%
LV +dP/dt [5, 10]: 3475±168 mm Hg/s
LV −dP/dt [5, 10]: 2842 ± 200 mm Hg/s
LVDd [5, 10]: 3.8 ± 0.1 mm
LVDs [5, 10]: 2.5 ± 0.1 mm
LVEDP [5, 10]: 1.5±0.2 mmHg
LVSP [5, 10]: 73 ± 3 mmHg
LVDd ([5]; 2 weeks after MI, 125 μg s.c. after MI, listed as AMD3100): 3.8±0.1 mm
LVDs ([5]; 3 wks after MI (as printed in text)): 2.5±0.2 mm
HR (heart rate) [5, 11]: 473 ± 26 bpm
LV −dP/dt [5, 11]: 2213 ± 112 mm Hg/s
LVDd [5, 11]: 4.0±0.1 mm
LVDs [5, 11]: 2.6±0.2 mm
FS (fractional shortening) [5, 12]: 28±1%
LV +dP/dt [5, 12]: 3383±104 mm Hg/s
LVDd [5, 12]: 4.0 ± 0.1 mm
LVDs [5, 12]: 2.9 ± 0.1 mm
LVEDP [5, 12]: 1.6±0.4 mmHg
LVSP [5, 12]: 71±2 mmHg
difference in heart rate between the two groups ([5]; after MI, vs control group): no significant difference
FS (fractional shortening) ([5]; before MI): 52 ± 1%
HR (heart rate) ([5]; before MI): 510 ± 26 bpm
LVDd ([5]; before MI): 2.8 ± 0.1 mm
LVDs ([5]; before MI): 1.4 ± 0.1 mm
LVDd, LVDs, fractional shortening, and heart rate, difference between the groups ([5]; before MI and one week after MI, vs saline): not significantly different
difference in LVSP between the groups ([5]; two weeks after MI, vs control): no significant difference
number of cultured EPCs (EPCs in peripheral blood; four weeks after AMI): returned to basline
number of EPCs in peripheral blood (EPCs in peripheral blood; one week after AMI): 868±210 /mm^2
number of EPCs in peripheral blood (EPCs in peripheral blood; two weeks after AMI): 556±47 /mm^2
EPCs (Sca-1/Flk-1 positive) in BM mononuclear cells by FACS [6]: 1.9±0.1%
EPCs (Sca-1/Flk-1 double positive) in peripheral blood by FACS [7]: 11.3±1.4%
